The text below walks through data of paper PMC7978038 (Molecular pharmaceutics, 2019).

Where two headings read alike, the source gives them in different places.

The conditions of series [1]: oral 2-PMPA; cited from earlier work.
The nature of series [2]: in vivo. As to conditions: male, beagle, dog, po, 1 mg/kg.
Series [3] relates to 100 different transporters, enzymes, and receptors, including several glutamate targets. As to conditions: selectivity; cited from earlier work.
The conditions of series [4]: mice, cited from earlier work.
The conditions of series [5]: mice, 10 mg/kg 2-PMPA equivalent dose, mean ± SEM, n = 3.
A short description of series [6]: in vivo. As to conditions: male, CD-1, mouse, iv, 10 mg/kg.
For series [7] the following is noted: mouse, microsomes.
For series [8] the following is noted: dog, microsomes.
The conditions of series [9]: human, microsomes.

Regarding `O=C(O)CCC(CP(=O)(O)O)C(=O)O` (stereo not shown) [Prodrug 2-PMPA, 2-(Phosphonomethyl)-pentanedioic acid], in [1], the “oral bioavailability (F)” value was less than 1%. In the series “in vivo [2]”, the AUC(0-t) (usually exposure summed from dosing to a finite time, without extrapolation to infinity) amounted to 1.44 µM·h; the peak concentration (Cmax) (in general, the highest concentration seen after dosing) was determined as 400 nM; the Tmax (commonly the time from dosing to the highest level) came out at 2 h. Further, the “activity at 100 different transporters, enzymes, and receptors” value in [3] was “no activity”. In addition, the “2-PMPA plasma AUC0−t” value in [4] (oral 2-PMPA, ref our previously published manuscript) was 0.65 ± 0.13 nmol·h/mL. For the same compound, in series [4] (oral), the oral bioavailability is on record as less than 1%. In addition, the “2-PMPA plasma concentration at 30 min post oral administration” value in series [5] amounted to 0.25 ± 0.02 nmol/mL. Besides, for the setting “mice, IV, 10 mg/kg”, the “2-PMPA brain AUC0−t” value worked out at 1.6 ± 0.2 nmol·h/g and the “2-PMPA brain Cmax” value is recorded as 1.2 ± 0.1 nmol/g. In the series “in vivo [6]”, this compound registered an AUC(0-t) of 104 ± 19 µM·h, a peak concentration (Cmax) of 109 ± 9.5 µM and a Kp of 0.015.

As for `Cc1oc(=O)oc1COC(=O)CCC(CP(=O)(OCc1oc(=O)oc1C)OCc1oc(=O)oc1C)C(=O)OCc1oc(=O)oc1C` (stereo not shown) [Prodrug 4], the “Intestinal microsomal stability, intact prodrug level at the end of 1 h incubation” value in series [7], in [8] and in series [9] was “did not show any intact prodrug level” each time. Further, the “metabolites (including 2 and 3) detected in plasma” value (mouse, in vivo, po) was “No metabolites, including 2 and 3, were detected”.

Take `CC(C)OC(=O)OCOC(=O)C(CCC(=O)O)CP(=O)(OCOC(=O)OC(C)C)OCOC(=O)OC(C)C` (stereo not shown) [Prodrug 21b]: in series [4] (oral), the “fold enhancement in 2-PMPA systemic availability versus orally administered 2-PMPA” value is 20 fold and the oral bioavailability is given as 11.5%.
